# Laboratory results from patent US9427444B2, “Pharmaceutical and cosmetic compositions for accelerated healing of wounds and other surface damages” (MITOTECH SA, priority 2007, dated 2016).
# How the values were obtained:
# [1] = system: human fibroblast monolayer; assay: Human fibroblast monolayer damage, model of wound in vitro; format: cell-based
# Text: Human fibroblast monolayer damage—is a model of wound in vitro, as fibroblasts are basement of connective tissue, which structure falls with any injury or damage. It is known that fibroblasts are one of the first to enter wounded area that considerably determines its healing. Fibroblast monolayer was damaged with sterile scalpel; as a result a 2000 micron wide distant break appeared. Ability of fibroblasts to heal the wound was estimated by length of cell migration zone, appeared during certain time period (1 day) inside the wound. Cell migration zone length depends directly on healing speed of artificially given wound. Results of several different SkQ1 concentrations test are shown on FIG. 4.
# fibroblast culture = assay: IF staining of cytoskeleton and fibronectin in fibroblast culture treated with SkQ1; format: cell-based, human
# Text: It points to contraction activity and cell movement enhancement. […] This was done by IF staining of actin and myosin in fibroblast stress-fibrils, treated with SkQ1 and from control group.
# Further on we analyzed a consistence of main extracellular matrix protein fibronectin in fibroblast culture, treated with SkQ1. […] Fibronectinic matrix forms as a result of both cell secretion and reorganization of matrix components present in culture in formation of serum. Fibronectin produced by fibroblasts has certain structural alterity that gives a possibility to construct selective antibodies.
# LAR epithelial cell line = assay: Epithelial layer movement into the wound in vitro; format: cell-based
# Procedure: Along with fibroblast movement and contraction, in wound healing a formation plays an important role of new epithelial layers in the wound—so called reepithalialization. Study on this process in vitro was carried out using LAR epithelial cell line. […] Ability of cell to form tight “islands” and single epithelial layer also weren't disturbed. Studies on expression of intracellular contact protein E-cadherin specific for epithelium confirmed epithelial structure stability in presence of SkQ1. […] This effect was studied in vitro using the same mode that was used in fibroblast studies. […] Unlike fibroblasts, epithelial cells moved into the wound in a single layer with all characteristic morphology and intracellular contacts.
# [2] = system: human subdermal diploid fibroblasts; assay: Differentiation of human subdermal fibroblasts into myofibroblasts (cell square, unstriped muscle actin, vinculin contacts); format: cell-based
# Text: Myofibroblasts emerge as result of normal fibroblast differentiation and in comparison to them have bigger size, better adherence to the substrate (in vivo to extracellular matrix, in vitro to plastic), different cytoskeleton structure and contractive activity.
# Main myofibroblast marker is unstriped muscle actin form, which mediates its contraction activity and almost never can be found in normal fibroblasts.
# Better adherence to the substrate is also a characteristic feature of myofibroblasts, it promotes its movement into wound and brace of wound edges. In our experiments we estimated number of tight contacts between cell and substrate, containing special focal adhesion protein vinculin.
# It is important to notice that short incubation with SkQ1 for 1-2 hours is enough for induction of this transformation, and further a population of myofibroblasts is supported in a media without SkQ1 for at least 4-6 weeks.
structure (smiles),measurement,setting,value
CC1=C(C)C(=O)C(CCCCCCCCCC[P+](c2ccccc2)(c2ccccc2)c2ccccc2)=CC1=O.[Br-] [SkQ1],length of cell migration zone inside the wound,"[1]; 1 day, 2000 micron wide break, FIG. 4","short period incubation with SkQ1 caused effect, which continued for a long time even without SkQ1"
same,number of cell rows entered to the wound,"[1]; 24 hours, FIG. 5",Injury healing acceleration
same,"cell skeleton reorganization, stress-fibrils",fibroblast culture; IF staining of actin and myosin,active cell skeleton reorganization with stress-fibril enhancement
same,fibronectin level (IF staining),fibroblast culture; monolayer areas and cell migration zone,significant increase
same,intracellular expression of fibronectin,fibroblast culture; selective antibodies to fibroblast fibronectin,raises
same,actinic stress-fibrils in the cells,LAR epithelial cell line,significantly raised
same,cell movement into the wound,LAR epithelial cell line,significantly accelerates cell movement into the wound
same,morphological changes of epithelial cells,LAR epithelial cell line,didn't cause significant morphological changes
same,persistence of effect on epithelial cells after drug withdrawal,LAR epithelial cell line,continued long after drug withdrawal
same,incubation time enough for induction of transformation into myofibroblasts,[2],1 to 2 h
same,average square value increase,"[2]; SkQ1 20 nM, whole population",increases more then two-three fold
same,number of vinculin-containing contacts per cell,"[2]; SkQ1 treated versus control cells, FIG. 3",increase of number of contacts per cell
same,average square of significant group of cells over control value (cell size distribution),"[2]; SkQ1 treatment, FIG. 2",5-6 fold
same,unstriped muscle actin form (IF staining) in giant cells versus normal fibroblasts,[2]; after SkQ1 treatment,heavy increase
same,time myofibroblast population is supported in media without SkQ1,[2]; after short incubation with SkQ1,4-6 weeks
